Reference: US20260083851A1 (AVILAR THERAPEUTICS, INC., priority 2022, published 2026)
Like-named read-outs stand apart in the source and are kept apart here. Starred links: 1 amine or outer side, 2 acyl side, 3 side chain; linkers in the order of their positions; H or OH if unused. Positions of bridges follow the written chain, without caps; N, C: chain ends. Non-standard residues stand in square brackets, D forms with d. Residues, ends and D or L forms follow the SMILES beside them. ξ: configuration not given here. *: point of attachment. X1 = O=C(CCOCC(COCCC(=O)NCCOCCOCCOCCOCC1OCC(Nc2cncc(C(F)(F)F)n2)C(O)C1O)NCC(=O)*)NCCOCCOCCOCCOCC1OCC(Nc2cncc(C(F)(F)F)n2)C(O)C1O; ξPro(4ξ-NH2) = O=C(C1CC(N[*:3])CN1[*:1])[*:2]

How the values were obtained:
[1] = target: T1, ASGPR receptor on HepG2 cells (ternary complex with AF488-labeled antibody) (Homo sapiens, UniProt P07306); experiment: Ternary complex formation assay (flow cytometry, cell-associated AF488 fluorescence); format: cell-based
T1 construct: host or cells: HepG2
T1 sequence (P07306 1-291): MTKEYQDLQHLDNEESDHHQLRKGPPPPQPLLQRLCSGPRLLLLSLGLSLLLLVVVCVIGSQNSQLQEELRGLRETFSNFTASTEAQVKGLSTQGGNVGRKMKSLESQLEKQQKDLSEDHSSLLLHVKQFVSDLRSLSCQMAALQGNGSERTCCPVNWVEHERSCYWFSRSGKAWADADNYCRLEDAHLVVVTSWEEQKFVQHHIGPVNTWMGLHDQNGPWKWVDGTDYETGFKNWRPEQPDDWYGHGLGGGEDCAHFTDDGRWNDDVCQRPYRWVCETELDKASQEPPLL
T1 sequence (P07307 1-311 partner): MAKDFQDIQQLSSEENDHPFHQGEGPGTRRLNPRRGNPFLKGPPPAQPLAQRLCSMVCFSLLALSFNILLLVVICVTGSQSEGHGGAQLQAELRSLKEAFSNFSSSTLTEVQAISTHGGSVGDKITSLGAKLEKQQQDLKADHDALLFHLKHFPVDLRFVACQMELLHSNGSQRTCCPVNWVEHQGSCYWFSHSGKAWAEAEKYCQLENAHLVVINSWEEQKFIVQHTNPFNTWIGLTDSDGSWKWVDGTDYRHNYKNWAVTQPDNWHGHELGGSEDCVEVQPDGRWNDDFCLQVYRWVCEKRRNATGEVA
Experimental: Human IgG (Sigma-Aldrich, 14506) was covalently labeled with Alexa Fluor 488 using the Alexa Fluor™ 488 Protein Labeling Kit (Thermo Fisher, A10235) following the manufacturer's instructions. HepG2 cells (ATCC, HB-8065) were cultured to about 70% confluence and harvested by trypsinization. Single cell suspensions of HepG2 cells were plated in 96 well plates at 1×10^5 cells/well in cell culture media (DMEM supplemented with 10% FBS) and placed at 4° C. For studies using human IgG, cells were incubated with 100 nM AF488-labeled anti-human IgG and serial dilutions of IgG-based degrader for 1 hour at 4° C. For studies using DNP, cells were incubated with 100 nM AF488-labeled polyclonal rabbit anti-dinitrophenyl (DNP) antibodies (ThermoFisher) and serial dilutions of DNP-based degrader for 1 hour at 4° C. After washing once with ice-cold PBS containing 0.1% BSA and 0.1% sodium azide, cells were resuspended in 150 uL PBS+0.1% BSA and cell-associated AF488 fluorescence was measured by flow cytometry using the iQue® Screener PLUS Flow Cytometer (IntelliCyt). […]

IgG = IgG SPR binding; conditions: second table, read-out: IgG KD
ASGPR = target: T2, ASGPR (Homo sapiens, UniProt P07306); experiment: ASGPR SPR binding
T2 construct: biotin (biotinylated)
T2 sequence (P07306 1-291): T1 sequence (P07306 1-291)

[2] = read-out: TCF EC50, 100 nM AF488-labeled antibody, 1 hour at 4° C., the 25th table, class symbols
[3] = second table, read-out: ASGPR KD
[4] = read-out: ASGPR KD, second table

Structure (SMILES) | EC50 [1, 2] [nM] | Kd (IgG) [nM] | Kd (ASGPR; [3]) [nM] | Kd (ASGPR; [4]) [nM] | EC50 ([1]; read-out: TCF EC50, 100 nM AF488-labeled antibody, 1 hour at 4° C., the 25th table, numeric bounds, nM from footnote) [nM]
CC(C)CC1NC(=O)C(Cc2cnc[nH]2)NC(=O)C(Cc2c[nH]c3ccccc23)NC(=O)C(C)NC(=O)C2CSSCC(NC(=O)C(Cc3c[nH]c4ccccc34)NC(=O)C(C(C)C)NC(=O)C(CC(C)C)NC(=O)C(CCC(=O)O)NC(=O)CNC1=O)C(=O)NC(C(C)O)C(=O)N1CCCC1C(=O)N1CC(NC(=O)CCN3CCN(CC(=O)NCC4OCC(Nc5cncc(C(F)(F)F)n5)C(O)C4O)CC3)CC1C(=O)NC(CC(=O)O)C(=O)N2 (stereo not drawn) [compound 39] | < 100 | < 100 | < 100 | – | –
CC(C)CC1NC(=O)C(Cc2cnc[nH]2)NC(=O)C(Cc2c[nH]c3ccccc23)NC(=O)C(C)NC(=O)C2CSSCC(NC(=O)C(Cc3c[nH]c4ccccc34)NC(=O)C(C(C)C)NC(=O)C(CC(C)C)NC(=O)C(CCC(=O)O)NC(=O)CNC1=O)C(=O)NC(C(C)O)C(=O)N1CCCC1C(=O)N1CC(NC(=O)CNC(COCCC(=O)NCC3OCC(Nc4cncc(C(F)(F)F)n4)C(O)C3O)COCCC(=O)NCC3OCC(Nc4cncc(C(F)(F)F)n4)C(O)C3O)CC1C(=O)NC(CC(=O)O)C(=O)N2 (stereo not drawn) [compound 41] | < 100 | < 100 | – | < 100 | –
CC(C)CC1NC(=O)C(Cc2cnc[nH]2)NC(=O)C(Cc2c[nH]c3ccccc23)NC(=O)C(C)NC(=O)C2CSSCC(NC(=O)C(Cc3c[nH]c4ccccc34)NC(=O)C(C(C)C)NC(=O)C(CC(C)C)NC(=O)C(CCC(=O)O)NC(=O)CNC1=O)C(=O)NC(C(C)O)C(=O)N1CCCC1C(=O)N1CC(NC(=O)c3ccc(N4CCC(CN5CCN(CC6OCC(Nc7cncc(C(F)(F)F)n7)C(O)C6O)CC5)CC4)nn3)CC1C(=O)NC(CC(=O)O)C(=O)N2 (stereo not drawn) [compound 42] | < 100 | < 100 | < 100 | – | –
CC(C)CC1NC(=O)C(Cc2cnc[nH]2)NC(=O)C(Cc2c[nH]c3ccccc23)NC(=O)C(C)NC(=O)C2CSSCC(NC(=O)C(Cc3c[nH]c4ccccc34)NC(=O)C(C(C)C)NC(=O)C(CC(C)C)NC(=O)C(CCC(=O)O)NC(=O)CNC1=O)C(=O)NC(C(C)O)C(=O)N1CCCC1C(=O)N1CC(NC(=O)c3ccc(C(=O)NCC4OCC(Nc5cncc(C(F)(F)F)n5)C(O)C4O)cc3)CC1C(=O)NC(CC(=O)O)C(=O)N2 (stereo not drawn) [compound 43] | > 1000 | < 100 | < 100 | – | –
CC(C)CC1NC(=O)C(Cc2cnc[nH]2)NC(=O)C(Cc2c[nH]c3ccccc23)NC(=O)C(C)NC(=O)C2CSSCC(NC(=O)C(Cc3c[nH]c4ccccc34)NC(=O)C(C(C)C)NC(=O)C(CC(C)C)NC(=O)C(CCC(=O)O)NC(=O)CNC1=O)C(=O)NC(C(C)O)C(=O)N1CCCC1C(=O)N1CC(NC(=O)c3ccc(N4CCC(CN5CCN(CC6OCC(Nc7cncc(C(F)(F)F)n7)C(O)C6O)CC5)CC4)cc3)CC1C(=O)NC(CC(=O)O)C(=O)N2 (stereo not drawn) [compound 44] | < 100 | < 100 | < 100 | – | –
CC(C)CC1NC(=O)C(Cc2cnc[nH]2)NC(=O)C(Cc2c[nH]c3ccccc23)NC(=O)C(C)NC(=O)C2CSSCC(NC(=O)C(Cc3c[nH]c4ccccc34)NC(=O)C(C(C)C)NC(=O)C(CC(C)C)NC(=O)C(CCC(=O)O)NC(=O)CNC1=O)C(=O)NC(C(C)O)C(=O)N1CCCC1C(=O)N1CC(NC(=O)C3CCC(C(=O)NCC4OCC(Nc5cncc(C(F)(F)F)n5)C(O)C4O)CC3)CC1C(=O)NC(CC(=O)O)C(=O)N2 (stereo not drawn) [compound 45] | > 1000 | < 100 | 100 to 500 | – | –
CC(C)CC1NC(=O)C(Cc2cnc[nH]2)NC(=O)C(Cc2c[nH]c3ccccc23)NC(=O)C(C)NC(=O)C2CSSCC(NC(=O)C(Cc3c[nH]c4ccccc34)NC(=O)C(C(C)C)NC(=O)C(CC(C)C)NC(=O)C(CCC(=O)O)NC(=O)CNC1=O)C(=O)NC(C(C)O)C(=O)N1CCCC1C(=O)N1CC(NC(=O)CNC(COCCC(=O)NCCOCCOCCOCCOCC3OCC(Nc4cncc(C(F)(F)F)n4)C(O)C3O)COCCC(=O)NCCOCCOCCOCCOCC3OCC(Nc4cncc(C(F)(F)F)n4)C(O)C3O)CC1C(=O)NC(CC(=O)O)C(=O)N2 (stereo not drawn) [compound 46] | < 100 | < 100 | – | < 100 | –
CC(C)CC1NC(=O)C(Cc2cnc[nH]2)NC(=O)C(Cc2c[nH]c3ccccc23)NC(=O)C(C)NC(=O)C2CSSCC(NC(=O)C(Cc3c[nH]c4ccccc34)NC(=O)C(C(C)C)NC(=O)C(CC(C)C)NC(=O)C(CCC(=O)O)NC(=O)CNC1=O)C(=O)NC(C(C)O)C(=O)N1CCCC1C(=O)N1CC(NC(=O)c3ccc(-c4ccc(C(=O)NCC5OCC(Nc6cncc(C(F)(F)F)n6)C(O)C5O)cc4)cc3)CC1C(=O)NC(CC(=O)O)C(=O)N2 (stereo not drawn) [compound 49] | – | < 100 | < 100 | – | > 686
CC(C)CC1NC(=O)C(Cc2cnc[nH]2)NC(=O)C(Cc2c[nH]c3ccccc23)NC(=O)C(C)NC(=O)C2CSSCC(NC(=O)C(Cc3c[nH]c4ccccc34)NC(=O)C(C(C)C)NC(=O)C(CC(C)C)NC(=O)C(CCC(=O)O)NC(=O)CNC1=O)C(=O)NC(C(C)O)C(=O)N1CCCC1C(=O)N1CC(NC(=O)COCCOCC(=O)NCC3OCC(Nc4cncc(C(F)(F)F)n4)C(O)C3O)CC1C(=O)NC(CC(=O)O)C(=O)N2 (stereo not drawn) [compound 50] | < 100 | < 100 | < 100 | – | –
CC(C)CC1NC(=O)C(Cc2cnc[nH]2)NC(=O)C(Cc2c[nH]c3ccccc23)NC(=O)C(C)NC(=O)C2CSSCC(NC(=O)C(Cc3c[nH]c4ccccc34)NC(=O)C(C(C)C)NC(=O)C(CC(C)C)NC(=O)C(CCC(=O)N(C)C)NC(=O)CNC1=O)C(=O)NC(C(C)O)C(=O)N1CCCC1C(=O)N1CC(NC(=O)CNC(COCCC(=O)NCCOCCOCCOCCOCC3OCC(Nc4cncc(C(F)(F)F)n4)C(O)C3O)COCCC(=O)NCCOCCOCCOCCOCC3OCC(Nc4cncc(C(F)(F)F)n4)C(O)C3O)CC1C(=O)NC(CC(=O)O)C(=O)N2 (stereo not drawn) [compound 53] | < 100 | < 100 | – | < 100 | –
CC(C)CC1NC(=O)C(C)NC(=O)CNC(=O)C(CC(C)C)NC(=O)C(Cc2cnc[nH]2)NC(=O)C(Cc2c[nH]c3ccccc23)NC(=O)C(C)NC(=O)C2CSSCC(NC(=O)C(Cc3c[nH]c4ccccc34)NC(=O)C(C(C)C)NC1=O)C(=O)NC(C(C)O)C(=O)N1CCCC1C(=O)N1CC(NC(=O)CNC(COCCC(=O)NCCOCCOCCOCCOCC3OCC(Nc4cncc(C(F)(F)F)n4)C(O)C3O)COCCC(=O)NCCOCCOCCOCCOCC3OCC(Nc4cncc(C(F)(F)F)n4)C(O)C3O)CC1C(=O)NC(C)C(=O)N2 (stereo not drawn) [compound 71] (cyclo(GALVWCTP[ξPro(4ξ-NH2)](X1)ACAWHL); disulfide 6-11; configuration not given here) | < 100 | < 100 | – | < 100 | –
CC(C)CC1NC(=O)C(Cc2cnc[nH]2)NC(=O)C(Cc2c[nH]c3ccccc23)NC(=O)C(C)NC(=O)C2CSSCC(NC(=O)C(Cc3c[nH]c4ccccc34)NC(=O)C(C(C)C)NC(=O)C(CC(C)C)NC(=O)C(CCC(=O)N(C)C)NC(=O)CNC1=O)C(=O)NC(C(C)O)C(=O)N1CCCC1C(=O)N1CC(NC(=O)CNC(COCCC(=O)NCCOCCOCCOCCOCC3OCC(Nc4cncc(C(F)(F)F)n4)C(O)C3O)COCCC(=O)NCCOCCOCCOCCOCC3OCC(Nc4cncc(C(F)(F)F)n4)C(O)C3O)CC1C(=O)NC(C)C(=O)N2 (stereo not drawn) [compound 72] (cyclo(GE(NMe2)LVWCTP[ξPro(4ξ-NH2)](X1)ACAWHL); disulfide 6-11; configuration not given here) | < 100 | < 100 | – | < 100 | –
CC(C)CC1NC(=O)C(Cc2cnc[nH]2)NC(=O)C(Cc2c[nH]c3ccccc23)NC(=O)C(C)NC(=O)C2CSSCC(NC(=O)C(Cc3c[nH]c4ccccc34)NC(=O)C(C(C)C)NC(=O)C(CC(C)C)NC(=O)C(CCC(=O)N(C)C)NC(=O)CNC1=O)C(=O)NC(C(C)O)C(=O)N1CCCC1C(=O)N1CC(NC(=O)CNC(COCCC(=O)NCCOCCOCCOCCOCC3OCC(Nc4cncc(C(F)(F)F)n4)C(O)C3O)COCCC(=O)NCCOCCOCCOCCOCC3OCC(Nc4cncc(C(F)(F)F)n4)C(O)C3O)CC1C(=O)NC(CC(N)=O)C(=O)N2 (stereo not drawn) [compound 73] (cyclo(GE(NMe2)LVWCTP[ξPro(4ξ-NH2)](X1)NCAWHL); disulfide 6-11; configuration not given here) | < 100 | < 100 | – | < 100 | –
